ChEMBL document CHEMBL4196143, “Total Synthesis and Structure Revision of Palmarumycin B6” (2018)

Test system: Aedes albopictus
Assay: Larvicidal activity against Aedes albopictus assessed as […] larval mortality after 24 hrs
Type: functional

SMILES	LC50
O=C1CCC2(Oc3cccc4cccc(c34)O2)c2c(Cl)ccc(O)c21	227 µM
O=C1CCC2(Oc3cccc4cccc(c34)O2)c2ccc(Cl)c(O)c21	32.7 µM
